Like-named read-outs stand apart in the source and are kept apart here.
Target: AcrB (Escherichia coli, UniProt P31224)
Assay: isothermal titration calorimetry (ITC)
Format: binding

Sequence of AcrB (P31224 whole entry): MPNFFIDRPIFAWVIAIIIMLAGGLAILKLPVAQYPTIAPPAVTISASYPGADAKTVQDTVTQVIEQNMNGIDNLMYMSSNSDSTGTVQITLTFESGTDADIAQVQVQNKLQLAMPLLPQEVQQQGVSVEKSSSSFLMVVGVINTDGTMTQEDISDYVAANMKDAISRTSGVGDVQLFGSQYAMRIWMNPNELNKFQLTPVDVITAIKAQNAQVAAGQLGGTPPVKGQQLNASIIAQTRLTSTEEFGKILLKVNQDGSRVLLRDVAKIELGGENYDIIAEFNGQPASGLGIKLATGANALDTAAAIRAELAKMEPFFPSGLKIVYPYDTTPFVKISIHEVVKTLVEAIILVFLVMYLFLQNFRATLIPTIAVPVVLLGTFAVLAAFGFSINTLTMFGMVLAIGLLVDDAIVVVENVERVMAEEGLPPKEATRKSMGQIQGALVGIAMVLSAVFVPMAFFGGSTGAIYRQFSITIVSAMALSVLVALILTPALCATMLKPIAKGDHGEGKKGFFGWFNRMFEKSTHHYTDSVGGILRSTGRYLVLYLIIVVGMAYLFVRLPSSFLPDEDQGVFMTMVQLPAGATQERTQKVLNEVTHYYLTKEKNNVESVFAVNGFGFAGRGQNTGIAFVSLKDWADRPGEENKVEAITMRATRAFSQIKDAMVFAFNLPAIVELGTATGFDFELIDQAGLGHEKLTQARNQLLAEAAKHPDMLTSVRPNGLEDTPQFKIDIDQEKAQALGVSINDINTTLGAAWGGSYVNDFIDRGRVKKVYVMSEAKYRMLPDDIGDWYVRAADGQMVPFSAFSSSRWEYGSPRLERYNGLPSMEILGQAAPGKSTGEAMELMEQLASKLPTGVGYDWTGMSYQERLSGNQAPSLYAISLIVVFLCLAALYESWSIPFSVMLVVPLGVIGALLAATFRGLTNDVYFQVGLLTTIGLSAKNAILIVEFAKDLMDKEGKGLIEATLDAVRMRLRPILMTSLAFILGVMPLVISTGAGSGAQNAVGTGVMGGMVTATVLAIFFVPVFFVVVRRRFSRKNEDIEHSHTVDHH

SMILES	Kd (read-out: KD) [nM]	Kd [nM]
CC(C)(C)c1nc(NC(=N)N)sc1Br [EPM30]	1790 ± 370	–
OC(COc1ccc(Cl)c(Cl)c1)CN1CCC(Nc2nccc(C(F)(F)F)n2)CC1 (stereo not drawn) [EPM35]	–	290 ± 30
Cc1ccc(Sc2cccc3nc(N)nc(N)c23)cc1 [EPM43]	560 ± 60	–

Reference: article PMC6007937, “A cell-based infection assay identifies efflux pump modulators that reduce bacterial intracellular load” (PLoS Pathogens, 2018)
